Measured values reported in paper PMC12187842, “A novel molecule targeting neutrophil-mediated B-1a cell trogocytosis attenuates sepsis-induced acute lung injury” (Frontiers in Immunology, 2025).

Experiments:
Format in all cases: in vivo, mouse
[1] = tested on: neutrophil-mediated B-1a cell trogocytosis; experiment: Neutrophil-mediated B-1a cell trogocytosis by flow cytometry after C11 treatment in CLP mice; settings: C11 10 mg/kg i.p. once immediately after CLP; cells isolated 4 h after CLP; CFSE-positive events within Ly6G-positive neutrophils; n = 5-6/group; p < 0.05 vs. C11 (-)
Description: (§1) Mice were anesthetized with 2% isoflurane in oxygen, and sepsis was induced via cecal ligation and puncture (CLP) ([26]). A 1-cm midline abdominal incision was made to expose the cecum, which was ligated 1-cm proximal to its end using a 4-0 silk suture. The cecum then was perforated with a single through-and-through puncture using a 22-gauge needle, positioned midway between the ligation and the tip of the cecum. A small amount of fecal material was gently extruded from the perforation sites to confirm the patency of the punctures, and the cecum was subsequently returned to the peritoneal cavity. Following abdominal closure, resuscitation was provided via subcutaneous (s.c.) injection of 500 µL normal saline. […]
B-1a cells (target cells) were isolated, and dead cells were removed using the EasySep Dead Cell Removal Kit (Cat. No. 17899, STEMCELL Technologies). […] Trogocytosis was evaluated using confocal imaging (LSM900; Zeiss, Oberkochen, Germany) to visualize the interaction between neutrophils and B-1a cells. NucBlue Live ReadyProbes Reagent (Thermo Fisher Scientific) was used for nuclear staining. For quantitative analysis, trogocytosis was assessed by flow cytometry, where CFSE (Carboxyfluorescein succinimidyl ester)-positive events within Ly6G-positive neutrophil populations were quantified as indicators of trogocytosis. […]

[2] = tested on: CLP-induced sepsis in C57BL/6 mice; experiment: Plasma pro-inflammatory cytokines in CLP mice by ELISA; settings: C11 10 mg/kg i.p. once after CLP (Figure 5 legend: 10 μg/kg); 20 h; n = 5-7/group; p < 0.05 vs. CLP vehicle
Description: as §1, with “saline. Postoperative analgesia was administered with a single dose of 0.1 mg/kg buprenorphine.” for “saline.”
Blood was collected by heart puncture. Plasma levels of organ injury markers (ALT: alanine transaminase, AST: aspartate transferase, and LDH: lactate dehydrogenase) were assessed by using colorimetric enzymatic assays (MedTest Dx, Canton, MI) according to the manufacturer’s protocol. Plasma levels of pro-inflammatory cytokines (TNFα: tumor necrosis factor α, and IL-6: interleukin-6) were measured by using mouse-specific ELISA kits (BD Biosciences).

[3] = tested on: B-1a cells; experiment: B-1a cell numbers in pleural and peritoneal cavities of CLP mice by flow cytometry
Description: as §1, with “saline. Postoperative analgesia was administered with a single dose of 0.1 mg/kg buprenorphine.” for “saline.”
B-1a cell and neutrophil populations were analyzed by flow cytometry ([9], [11], [28]). […] After that, B-1a cells (CD45^+CD19^+B220^lo/-CD5^+CD23^-) ([6], [28]), and neutrophils (CD45^+Ly6G^+) were detected by flow cytometry. Fc block (Cat. No. 156604, BioLegend) was used to prevent nonspecific antibody binding and the cell viability was determined using a Zombie Aqua Fixable Viability Kit (BioLegend). […]

Substance: 126-ELKNRTVSWFS-136 [Compound C11]
- neutrophil-mediated B-1a cell trogocytosis [1]: significantly reduced
- plasma IL-6 [2]: significantly reduced
- plasma TNF-α [2]: significantly reduced
- B-1a cell numbers in the pleural and peritoneal cavities ([3]; C11 10 mg/kg i.p. once immediately after CLP, 20 h after surgery, flow cytometry, n = 5-6/group, p < 0.05 vs. C11 (-)): effectively preserved
- restoration of B-1a cell numbers in sepsis ([3]; discussion, blocking of Siglec-G/CD47 interaction by C11 in CLP mice): did not fully restore B-1a cell numbers
